Like-named read-outs stand apart in the source and are kept apart here.
Key:
[1] = Emission measurement in CH3CN; type: physicochemical; details: room temperature, excitation at 355 nm
[2] = Luminescence quantum yield measurements; type: physicochemical; parameters: key: fraction, relative to [Ru(bipy)3]Cl2 reference in CH3CN (Φem=5.9%); details: CH3CN, room temperature, excitation at 355 nm
Procedure, shortened: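 Samples in CH3CN at absorbance 0.1 at 355 nm, excited at 355 nm by an Nd-YAG-pumped OPO with emission collected at right angle onto a monochromator and CCD. Quantum yield calculated relative to [Ru(bipy)3]Cl2 in CH3CN (Φem=5.9%), correcting for absorbed light fraction, integrated emission and refractive index.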

[3] = Singlet oxygen measurement, indirect evaluation (RNO absorbance); type: physicochemical
Procedure, shortened: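 Complex (absorbance 0.2 in air-saturated CH3CN with RNO 24 μM, imidazole 12 mM; or 0.1 in air-saturated PBS with RNO 20 μM, histidine 10 mM) irradiated for varying times. RNO bleaching (A0−A) at 420 nm (CH3CN) or 440 nm (PBS) plotted against time; slope with absorbance correction gives singlet oxygen quantum yield.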

[4] = tested on: human cervical carcinoma (HeLa) cells; test: (Photo-)cytotoxicity on 2D cell monolayers, resazurin assay, HeLa; type: cell-based; details: for PI (480 nm): dark vs 480 nm (10 min, 3.1 J/cm^2); for PI (540 nm): dark vs 540 nm (40 min, 9.5 J/cm^2)
Text: Before an experiment, the cells were passaged three times.

HeLa MCTS = test: (Photo-)cytotoxicity on 3D multicellular tumor spheroids (ATP, CellTiter-Glo 3D); type: cell-based, human; details: for phototoxicity in HeLa MCTS: 1 Photon and 2 Photons irradiation, compared with compounds 4-6, 8, 10; for PI (1-Photon): dark vs 1-Photon irradiation (500 nm, 10 J/cm^2); for PI (2-Photon): dark vs 2-Photon irradiation (800 nm, 10 J/cm^2)
Procedure, shortened: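 HeLa spheroids grown on agarose from 3000 cells/well over 2–3 days, then treated with compound (2% DMSO) for 12 h. Spheroids kept dark or irradiated at 500 nm one-photon or 800 nm two-photon (10 J/cm^2 each), then incubated 48 h more. Viability read as ATP by luminescence.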

[5] = tested on: human glioblastoma astrocytoma (U373) cells; test: (Photo-)cytotoxicity on 2D cell monolayers, resazurin assay, U373; details: for PI (480 nm): U373, dark vs 480 nm (10 min, 3.1 J/cm^2); for PI (540 nm): U373, dark vs 540 nm (40 min, 9.5 J/cm^2); for IC50: compounds 1-3 as chloride salts
Method: (§1) The human glioblastoma astrocytoma (U373) cell line was cultured in MEM medium supplemented with 10% FBS, 1% NEAA (non-essential amino-acids) and 1% penicillin/streptomycin. […] The human retinal epithelial cells (RPE-1, non-cancerous cells immortalized with hTERT) were cultured in DMEM-F12 medium supplemented with 10% FBS and 1% penicillin/streptomycin. All cell lines were obtained from the American Type Culture Collection (ATCC) and cultured at 37° C. and 5% CO2. Before an experiment, the cells were passaged three times.
(§2) The cytotoxicity of the compounds was assessed by measuring cell viability using a fluorometric resazurin assay. The cultivated cells were seeded in triplicates in 96 well plates with a density of 4000 cells per well in 100 μL of media. After 24 h, the medium was removed and the cells were treated with increasing concentrations of the compound diluted in cell media achieving a total volume of 200 μL. The cells were incubated with the compound for 4 h. After this time, the media was removed and replaced with 200 μL of fresh medium. For the phototoxicity studies, the cells were exposed to light with an Atlas Photonics LUMOS BIO irradiator. Each well was constantly illuminated with either a 480 nm or 540 nm irradiation. During this time, the temperature was maintained constantly at 37° C. The cells were grown in the incubator for additional 44 h. For the determination of the dark cytotoxicity, the cells were not irradiated and after the medium exchange directly incubated for 44 h. After this time, the medium was replaced with fresh medium containing resazurin with a final concentration of 0.2 mg/mL. After 4 h incubation, the amount of the fluorescent product resorufin was determined upon excitation at 540 nm and measurement its emission at 590 nm using a SpectraMax M2 Microplate Reader (Molecular Devices).
(§3) The obtained data was analyzed with the GraphPad Prism software.

[6] = tested on: mouse colon carcinoma (CT-26) cells; test: (Photo-)cytotoxicity on 2D cell monolayers, resazurin assay, CT-26; details: for PI (480 nm): CT-26, dark vs 480 nm (10 min, 3.1 J/cm^2); for PI (540 nm): CT-26, dark vs 540 nm (40 min, 9.5 J/cm^2); for IC50: compounds 1-3 as chloride salts
Method: as §1, §2, §3

[7] = dark, 4 h incubation, compounds 1-3 as chloride salts, read-out: IC50 dark
[8] = read-out: IC50 480 nm (10 min, 3.1 J/cm^2), irradiation 480 nm (10 min, 3.1 J/cm^2), compounds 1-3 as chloride salts
[9] = read-out: IC50 540 nm (40 min, 9.5 J/cm^2), irradiation 540 nm (40 min, 9.5 J/cm^2), compounds 1-3 as chloride salts
[10] = 1-Photon irradiation (500 nm, 10 J/cm^2), read-out: IC50 1-Photon irradiation (500 nm, 10 J/cm^2)
[11] = 2-Photon irradiation (800 nm, 10 J/cm^2, section interval of 5 μm), read-out: IC50 2-Photon irradiation (800 nm, 10 J/cm^2)
[12] = dark, 12 h incubation, read-out: IC50 dark
[13] = read-out: IC50 480 nm (10 min, 3.1 J/cm^2), U373, irradiation 480 nm (10 min, 3.1 J/cm^2)
[14] = read-out: IC50 dark, U373, dark, 4 h incubation
[15] = read-out: IC50 540 nm (40 min, 9.5 J/cm^2), CT-26, irradiation 540 nm (40 min, 9.5 J/cm^2)
[16] = read-out: IC50 dark, CT-26, dark, 4 h incubation

| Compound | λem/nm (Emission maximum) [1] | ϕem (Luminescence Quantum Yield) [2] | Singlet oxygen quantum yield, indirect 450 nm CH3CN ([3]; CH3CN) | Singlet oxygen quantum yield, indirect 450 nm PBS [3] | Singlet oxygen quantum yield, indirect 540 nm CH3CN ([3]; CH3CN) | Singlet oxygen quantum yield, indirect 540 nm PBS [3] | PI (480 nm) [4] | PI (540 nm) [4] | IC50 [4, 7] | IC50 [4, 8] | IC50 [4, 9] | IC50 (HeLa MCTS; [10]) | IC50 (HeLa MCTS; [11]) | PI (1-Photon) (HeLa MCTS) | PI (2-Photon) (HeLa MCTS) | IC50 (HeLa MCTS; [12]) | PI (480 nm) [5] | PI (540 nm) [5] | IC50 [5, 13] | IC50 [5, 14] | other results |
| --- | --- | --- | --- | --- | --- | --- | --- | --- | --- | --- | --- | --- | --- | --- | --- | --- | --- | --- | --- | --- | --- |
| COc1ccc(/C=C/c2ccnc(-c3cc(/C=C/c4ccc(OC)cc4)ccn3)c2)cc1.F[P-](F)(F)(F)(F)F.F[P-](F)(F)(F)(F)F.[Ru+2].c1cnc2c(c1)ccc1cccnc12.c1cnc2c(c1)ccc1cccnc12 [Compound 9, [Ru(phen)2((E,E′)-4,4′-Bis[p-methoxystyryl]-2,2′-bipyridine)][PF6]2] | 663 nm | 0.019 | 82% | 9% | 79% | 8% | >66.7 | >83.3 | > 100000 nM | 1500 ± 600 nM | 1200 ± 700 nM | 7500 ± 200 nM | 1200 ± 300 nM | >40.0 | >250.0 | > 300000 nM | >40.0 | >47.6 | 2500 ± 900 nM | > 100000 nM | phototoxicity in HeLa MCTS (HeLa MCTS): much higher phototoxicity; PI (480 nm) [6]: >90.9; PI (540 nm) [6]: >111.1; IC50 [6, 15]: 900 ± 400 nM; IC50 [6, 16]: > 100000 nM |
| CN(C)c1ccc(/C=C/c2ccnc(-c3cc(/C=C/c4ccc(N(C)C)cc4)ccn3)c2)cc1.F[P-](F)(F)(F)(F)F.F[P-](F)(F)(F)(F)F.[Ru+2].c1ccc(-c2ccnc3c2ccc2c(-c4ccccc4)ccnc23)cc1.c1ccc(-c2ccnc3c2ccc2c(-c4ccccc4)ccnc23)cc1 [Compound 10, [Ru(4,7-Diphenyl-1,10-phenanthroline)2((E,E′)-4,4′-Bis[p-(N,N-dimethylamino)styryl]-2,2′-bipyridine)][PF6]2] | 698 nm | 0.006 | 48% | 2% | 43% | 2% | 6.7 | 6.3 | 10700 ± 1400 nM | 1600 ± 300 nM | 1700 ± 400 nM | 8900 ± 700 nM | 3100 ± 600 nM | 3.1 | 9.0 | 27800 ± 3600 nM | 7.6 | 6.5 | 1800 ± 300 nM | 13700 ± 1100 nM | PI (480 nm) [6]: 4.0; PI (540 nm) [6]: 4.7; IC50 [6, 15]: 1100 ± 400 nM; IC50 [6, 16]: 5200 ± 800 nM |
| COc1ccc(C=Cc2ccnc(-c3cc(C=Cc4ccc(OC)cc4)ccn3)c2)cc1.F[P-](F)(F)(F)(F)F.F[P-](F)(F)(F)(F)F.[Ru+2].c1ccc(-c2ccnc3c2ccc2c(-c4ccccc4)ccnc23)cc1.c1ccc(-c2ccnc3c2ccc2c(-c4ccccc4)ccnc23)cc1 [Compound 11, [Ru(4,7-Diphenyl-1,10-phenanthroline)2((E,E′)-4,4′-Bis[p-methoxystyryl]-2,2′-bipyridine)][PF6]2] | 663 nm | 0.027 | 73% | 7% | 72% | 5% | 27.5 | 23.6 | 16500 ± 800 nM | 600 ± 300 nM | 700 ± 500 nM | 3800 ± 400 nM | 800 ± 500 nM | 7.7 | 36.6 | 29300 ± 2900 nM | 20.6 | 26.4 | 900 ± 200 nM | 18500 ± 1000 nM | phototoxicity in HeLa MCTS (HeLa MCTS): much higher phototoxicity; PI (480 nm) [6]: 17.2; PI (540 nm) [6]: 14.3; IC50 [6, 15]: 600 ± 200 nM; IC50 [6, 16]: 8600 ± 900 nM |
| [Ru(bipy)2((E,E′)-4,4′-Bis[p-(N,N-methoxy)styryl]-2,2′-bipyridine)][PF6]2 [Compound 7] | 664 nm | 0.028 | 77% | 11% | 68% | 10% | >83.3 | >66.7 | > 100000 nM | 1200 ± 400 nM | 1500 ± 500 nM | 6800 ± 200 nM | 1400 ± 200 nM | >44.1 | >214.3 | > 300000 nM | >9.5 | >7.4 | 10500 ± 1700 nM | > 100000 nM | singlet oxygen quantum yields in CH3CN ([3]; CH3CN, range over direct and indirect methods, 450 and 540 nm): 68-77%; singlet oxygen quantum yields in an aqueous solution ([3]; aqueous solution (PBS), range over 450 and 540 nm): 10-11%; phototoxicity in HeLa MCTS (HeLa MCTS): much higher phototoxicity; PI (480 nm) [6]: >142.9; PI (540 nm) [6]: >111.1; IC50 [6, 15]: 900 ± 300 nM; IC50 [6, 16]: > 100000 nM |

Source: US20220409727A1, “Metal Complexes Bearing Bisstyryl-Bipyridine Ligand and Their Use as Photosensitizer Agent in One and Two-Photon Photodynamic Therapy” (Paris Sciences et Lettres, priority 2019, published 2022)
